In PubChem BioAssay AID1794821:

Target: Sodium/hydrogen exchanger 9B2 (Homo sapiens) (UniProt Q86UD5)
Assay: SLC9B2 inhibition via intracellular pH change, dose response, cell-based, pHluorin biosensor fluorescence, HEK-293, SLC9B2 overexpression (AID 1794821)
Conditions: HEK-293 SLC9B2 OE

Sodium/hydrogen exchanger 9B2 (Homo sapiens), sequence (Q86UD5 whole entry, looked up): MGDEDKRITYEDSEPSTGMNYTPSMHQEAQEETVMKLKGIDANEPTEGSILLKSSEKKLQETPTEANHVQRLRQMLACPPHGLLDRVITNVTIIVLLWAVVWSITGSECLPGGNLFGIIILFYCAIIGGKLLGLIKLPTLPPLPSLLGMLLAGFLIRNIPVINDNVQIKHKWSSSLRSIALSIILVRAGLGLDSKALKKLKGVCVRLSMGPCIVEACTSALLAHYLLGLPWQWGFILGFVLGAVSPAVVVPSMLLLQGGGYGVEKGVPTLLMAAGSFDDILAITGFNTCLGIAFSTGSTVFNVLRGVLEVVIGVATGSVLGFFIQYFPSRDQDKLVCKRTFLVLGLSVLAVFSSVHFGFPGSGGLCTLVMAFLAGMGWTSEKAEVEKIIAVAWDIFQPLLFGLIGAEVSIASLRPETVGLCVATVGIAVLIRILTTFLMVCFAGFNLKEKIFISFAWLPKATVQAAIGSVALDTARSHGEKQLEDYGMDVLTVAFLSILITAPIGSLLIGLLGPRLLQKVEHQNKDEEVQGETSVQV

IC50: 90 µM
SMILES: O=C(CCc1ccc(O)cc1)c1c(O)cc(O)cc1O
